{"source": "patent US20190209548A1", "about": "“LINKED DIARYL COMPOUNDS WITH ANTICANCER PROPERTIES AND METHODS OF USING THE SAME” (University of Maryland, College Park, priority 2014, published 2019)", "key": {"[1]": {"system": "22mer hTel K^+", "test": "ITC titration with hTel G-quadruplex, K+ form", "assay_type": "binding, human", "description": "(§1) Isothermal titration calorimetry. ITC experiments were performed using a VP-ITC calorimeter (GE-Healthcare). A typical ITC experiment involved as many as addition of 28 (10 μL) injections of as high as 1 mM ligand solutions into ˜1.5 mL of a dilute DNA solution (10 μM). Corrected titration curves were achieved by subtracting the blank titration data from the ITC-data for the ligand-DNA titrations. Corrected ITC titrations were fit with a nonlinear regression algorithm again using the CHASM ITC data analysis program developed in our laboratory.\nDNA stock solutions were prepared by reconstituting the lyophilized oligonucleotide into 20 mM Tris buffer with a salt concentration of 100 mM KCl and a pH of 7.2. Approximately 2 mL of the oligonucleotide was dialyzed (1000 Mw cutoff membrane) against three changes of buffer solution (1 L, 24 h each) at 4° C. The concentrations of stock DNA solutions were verified using UV-Vis. G-Quadruplex DNAs were annealed by quickly heating to sample to 100° C., holding at 100° C. for ten minutes then slowly cooling to 5° C. over three hours period. Molar extinction coefficient of the DNAs were determined using a nearest-neighbor method for single stranded DNA. The extinction coefficients at 260 nm for the WT 27-mer bcl-2, WT 24-mer c-myc, WT 22-mer human telomere hTel sequences are 267,200 M^−1cm^−1, 248,100 M^−1cm^−1, and 228,500 M^−1cm^−1 respectively. […]"}, "[2]": {"system": "8 bp AT duplex DNA", "test": "UV-visible titration with duplex DNA", "assay_type": "binding", "conditions": "ligand 10 μM", "description": "UV titration studies of DNA with the triazene ligands, DMZ and Triazene-1. The molar extinction coefficients at 260 nm for 22-mer c-kit1, 18-mer VEGF, 23-mer bcl-2 2345, 15-mer TBA and 20-mer 8 bp AT are as follows 226,700 M^−1 cm^−1, 169,800 M^−1 cm^−1, 227,300 M^−1 cm^−1, 143,300 M^−1 cm^1 and 205,500 M^−1 cm^−1, respectively. The concentration of ligands used in this study was 10 μM and the DNA concentrations were 0, 0.25, 1.5, 3, 5, 6, 7, 8, 9, 10, 20, 30, 40, 50, 100, and 15 μM. The buffer contained 250 mM KCl, 50 mM Tris-HCl (at pH 7.5). The following quadruplex DNA were tested: c-kit1, VEGF, bcl-2 2345, and TBA. Duplex DNA (8 bp AT) was also tested. The sample was first heated up to 95° C. for 5 min without the ligand and then cooled down to room temperature in 15 min. The ligand was then added and the mixture was incubated at 4° C. for ˜12 h before recording the data. In case of Triazene-1 and Triazene-2, the sample mixture contained 1% DMSO."}, "[3]": {"system": "7bp HP•AT", "test": "ITC titration with 7 bp hairpin containing A2T2", "assay_type": "binding", "description": "as §1\nDNA stock solutions were prepared by reconstituting the lyophilized oligonucleotide into 20 mM Tris buffer with a salt concentration of 100 mM KCl and a pH of 7.2. Approximately 2 mL of the oligonucleotide was dialyzed (1000 Mw cutoff membrane) against three changes of buffer solution (1 L, 24 h each) at 4° C. The concentrations of stock DNA solutions were verified using UV-Vis. G-Quadruplex DNAs were annealed by quickly heating to sample to 100° C., holding at 100° C. for ten minutes then slowly cooling to 5° C. over three hours period. Molar extinction coefficient of the DNAs were determined using a nearest-neighbor method for single stranded DNA. The extinction coefficients at 260 nm for the WT 27-mer bcl-2, WT 24-mer c-myc, WT 22-mer human telomere hTel sequences are 267,200 M^−1cm^−1, 248,100 M^−1cm^−1, and 228,500 M^−1cm^−1 respectively. The extinction coefficient at 260 nm for the 7 base pair hairpin with A2T2 (7 bp HP⋅AT) and the 7 base pair hairpin without A2T2 (7 bp HP) are 165,200 M^−1cm^−1 and 159,200 M^−1cm^−1 respectively. Cell culture grade water purchased from Corning was used for all experiments."}, "[4]": {"system": "MCR5A", "test": "WST-1 IC50 determination, normal fibroblast", "assay_type": "cell-based, human", "conditions": "normal fibroblast cell, 72 hours", "description": "Cell lines and culturing. The following human cell lines were purchased from ATCC (ATCC, Manassas, Va.): prostate cancer cells (PC-3), triple negative breast cancer cells (MDA-MB-231), ovarian cancer cells (OVCAR-3), normal bone marrow (NBM) and normal fibroblast cells (MCR5A). MDA-MB-231 cells were grown at 37° C. with 5% CO2 atmosphere with DMEM (Life technologies, Carlsbad, Calif.) supplemented with heat-inactivated 10% (V/V) fetal bovine serum. OVCAR-3 and PC-3 cells were grown at 37° C. with 5% CO2 atmosphere with RPMI (Life technologies, Carlsbad, Calif.) supplemented with heat-inactivated 10% (V/V) fetal bovine serum. Cell lines were grown and maintained according to ATCC recommendations.\nIC50 determination. Cell lines were seeded into 96-well plates the afternoon prior to treatment. Cell seeding number was determined by growing cells in log phase growth during drug treatment. Approximately 18 hours later, compounds were semi-serially diluted in dimethyl sulfoxide (DMSO) and then growth medium, and added to cells. Plates were incubated for 72 hours prior to addition of WST-1 (Promega, Madison Wis.). Plates were read after 4 additional hours of incubation at 37° C. using a Bio-Tek Synergy HT plate reader (Bio-Tek, Winooski, Vt.). Data was analyzed, graphed and IC50s generated using GraphPad Prism Software (Graphpad, La Jolla, Calif.)."}, "[5]": {"system": "telomerase activity in MDA-MB-231", "test": "Telomerase activity assay (TRAPeze XL) in treated cells", "assay_type": "cell-based, human", "description": "Telomerase Activity Assay. MDA-MB-231 cells were routinely cultured in DMEM with 10% FBS and 1% L-glutamine. The evening prior to treatment, actively growing MDA-MB-231 cells were sub-cultured and seeded into T-25 flasks at 2×10^5 cells/flask. […] At 48 and 72 hours after treatment, cells were harvested, washed with PBS, and pelleted. Cell pellets were resuspended in 200 μl CHAPS lysis buffer with 200 units/mL RNase inhibitor, mixed by pipetting, and incubated on ice for 30 minutes. Lysates were then centrifuged at 12,000×g for 20 minutes at 4° C., and supernatants were collected, snap frozen, and stored at −80° C. until analysis. Telomerase activity was assayed using a fluorescence-based TRAPeze XL telomerase detection kit (Intergen, Purchase, N.Y.). According to manufacturer, lysates (1000 cell-equivalents) were mixed with TRAPeze XL reaction mix containing Amplifuor primers and incubated at 30° C. for 30 min to allow the elongation of “TS” primer by telomerase. Amplified telomerase products were quantitated with a fluorescence plate reader. Telomerase activity (in TPG units) was calculated by comparing the ratio of telomerase products to an internal standard for each lysate, as described by the manufacturer. Each unit of TPG (Total Product Generated) corresponds to the number of TS primers extended with at least 3 telomeric repeats by telomerase in the extract in a 30 minute incubation at 30° C."}, "[6]": {"system": "24mer WT c-myc", "test": "CD titration with c-myc G-quadruplex", "assay_type": "binding", "conditions": "K+ Tris buffer", "description": "Circular Dichroism (CD). CD titration experiments were performed with an Olis DSM-20 spectropolarimeter (Bogart, Ga.). All measurements were done at 25° C. using a 1 cm quartz cuvette and covering a spectral range of 220-420 nm. […] Stock solutions of the ligand were added in small amount to reach a molar ratio of 1:1, 3:1, 6:1, and 10:1 of ligand per equivalence of DNA."}, "[7]": {"system": "B-DNAs containing the AT rich sequence", "conditions": "measured by NMR, Jenkins et al.; cited from earlier work"}}}
{"smiles": "N=C(N)c1ccc(NN=Nc2ccccc2)cc1", "note": "[DMZ1]", "values": [{"measurement": "K1", "setting": "[1]", "value": 2100, "unit": "M⁻¹"}, {"measurement": "shift of absorption spectrum upon DNA titration", "setting": "[2]", "value": "no such shift was observed"}, {"measurement": "K1", "setting": "[3]; 20 mM Tris, 100 mM KCl, pH 7.2", "value": 29000, "unit": "M⁻¹"}, {"measurement": "reduction in binding affinity relative to DMZ", "setting": "[3]; compare Tables 2 and 3", "value": "~30", "unit": "times"}]}
{"smiles": "N=C(N)c1ccc(N=NNc2cccc(C#Cc3ccc(F)cc3)c2)cc1", "note": "[DMZ9]", "values": [{"measurement": "IC50", "setting": "[4]; read-out: IC50 ± SD, MCR5A", "value": "8.3 ± 4", "unit": "µM"}, {"measurement": "inhibition of telomerase activity", "setting": "[5]; 11 μM, 48 h or 72 h", "value": "up to 50%"}]}
{"smiles": "N=C(N)c1ccc(/N=N/Nc2ccccc2C#Cc2ccc(F)cc2)cc1", "note": "[DMZ13]", "values": [{"measurement": "IC50 ± SD, MCR5A", "setting": "[4]", "value": "NE (NE means not effective. Cell viability was the same or greater than 75% of the DMSO control at 20 μM compound concentration.)"}, {"measurement": "inhibition of telomerase activity", "setting": "[5]; 12.4 μM, 48 h", "value": "about 20%"}, {"measurement": "inhibition of telomerase activity", "setting": "[5]; 12.4 μM, 72 h", "value": "about 30%"}]}
{"smiles": "N=C(N)c1ccc(/N=N/Nc2ccc(C(=N)N)cc2)cc1", "note": "[DMZ, Diminazene aceturate, reference compound]", "values": [{"measurement": "K3", "setting": "[1]", "value": 55000, "unit": "M⁻¹"}, {"measurement": "CD signal of G-quadruplex upon complexation", "setting": "[6]", "value": "dramatically decreased"}, {"measurement": "Kavg, binding affinity", "setting": "[7]", "value": "≈ 1×10^6 M^−1"}, {"measurement": "K2", "setting": "[3]; 20 mM Tris, 100 mM KCl, pH 7.2", "value": 45000, "unit": "M⁻¹"}]}
